This is an account of results in ChEMBL document CHEMBL5715954, “Silencing c-Myc translation as a therapeutic strategy through targeting PI3Kδ and CK1ε in hematological malignancies” (Blood, 2017).

Common to all, as to design: scale not given: the % may be the effect or the level left
The target of assay [1] is Tyrosine-protein kinase ABL2 (Homo sapiens) (UniProt P42684). Description: Inhibition of human ABL2 assessed as enzyme activity at 1 uM using EAIYAAPFAKKK as substrate preincubated for 20 mins followed by [gamma-33P]-ATP addition and measured after 120 mins by radiometric Hot-SpotSM Kinase assay relative to control.
In assay [2] the target is RAC-alpha serine/threonine-protein kinase (Homo sapiens) (UniProt P31749). Description: Inhibition of human AKT1 assessed as enzyme activity at 1 uM using KGSGSGRPRTSSFAEG as substrate preincubated for 20 mins followed by [gamma-33P]-ATP addition and measured after 120 mins by radiometric Hot-SpotSM Kinase assay relative to control.
For assay [3], the target named is T1, Aurora kinase C (Homo sapiens) (UniProt Q9UQB9).
T1 sequence (whole entry): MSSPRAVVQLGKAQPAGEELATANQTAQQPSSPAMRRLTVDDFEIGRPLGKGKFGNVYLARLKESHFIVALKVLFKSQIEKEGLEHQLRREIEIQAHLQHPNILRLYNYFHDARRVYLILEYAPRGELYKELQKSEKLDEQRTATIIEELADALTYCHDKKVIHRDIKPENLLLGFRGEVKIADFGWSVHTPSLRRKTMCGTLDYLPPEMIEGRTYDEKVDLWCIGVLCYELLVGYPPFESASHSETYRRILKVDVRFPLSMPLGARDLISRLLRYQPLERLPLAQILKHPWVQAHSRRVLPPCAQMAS
Description: Inhibition of human Aurora C assessed as enzyme activity at 1 uM using H-LRRASLG as substrate preincubated for 20 mins followed by [gamma-33P]-ATP addition and measured after 120 mins by radiometric Hot-SpotSM Kinase assay relative to control.

For assay [4], the target named is Cyclin-dependent kinase 5/CDK5 activator 1 (Homo sapiens) (UniProt Q00535+Q15078). Put plainly: Inhibition of human CDK5/p25 assessed as enzyme activity at 1 uM using RB Protein as substrate preincubated for 20 mins followed by [gamma-33P]-ATP addition and measured after 120 mins by radiometric Hot-SpotSM Kinase assay relative to control. It counts as protein-complex assay.

Assay [5] deals with Dual specificity tyrosine-phosphorylation-regulated kinase 1A (Homo sapiens) (UniProt Q13627). Description: Inhibition of human DYRK1/DYRK1A assessed as enzyme activity at 1 uM using RRRFRPASPLRGPPK as substrate preincubated for 20 mins followed by [gamma-33P]-ATP addition and measured after 120 mins by radiometric Hot-SpotSM Kinase assay relative to control.
Assay [6] deals with Tyrosine-protein kinase Lyn (Homo sapiens) (UniProt P07948). Put plainly: Inhibition of human LYN assessed as enzyme activity at 1 uM using poly[Glu:Tyr] (4:1) as substrate preincubated for 20 mins followed by [gamma-33P]-ATP addition and measured after 120 mins by radiometric Hot-SpotSM Kinase assay relative to control.
In assay [7] the target is T2, Dual specificity mitogen-activated protein kinase kinase 3 (Homo sapiens) (UniProt P46734).
T2 sequence (whole entry): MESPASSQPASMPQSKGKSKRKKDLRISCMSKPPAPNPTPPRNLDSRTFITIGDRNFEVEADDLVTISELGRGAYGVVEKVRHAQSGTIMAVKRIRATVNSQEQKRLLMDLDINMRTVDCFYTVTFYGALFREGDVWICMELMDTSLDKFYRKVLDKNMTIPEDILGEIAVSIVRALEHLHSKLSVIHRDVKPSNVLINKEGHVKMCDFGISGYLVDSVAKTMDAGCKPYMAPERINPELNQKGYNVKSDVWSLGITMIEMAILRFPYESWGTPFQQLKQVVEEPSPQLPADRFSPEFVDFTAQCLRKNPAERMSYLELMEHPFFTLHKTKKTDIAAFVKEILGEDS
Description: Inhibition of human MEK3 assessed as enzyme activity at 1 uM using p38a (K53A) as substrate preincubated for 20 mins followed by [gamma-33P]-ATP addition and measured after 120 mins by radiometric Hot-SpotSM Kinase assay relative to control.

Assay [8] concerns the target Serine/threonine-protein kinase PAK 2 (Homo sapiens) (UniProt Q13177). Put plainly: Inhibition of human PAK2 assessed as enzyme activity at 1 uM using RRRLSFAEPG as substrate preincubated for 20 mins followed by [gamma-33P]-ATP addition and measured after 120 mins by radiometric Hot-SpotSM Kinase assay relative to control.
Assay [9] concerns the target SRSF protein kinase 1 (Homo sapiens) (UniProt Q96SB4). Put plainly: Inhibition of human SRPK1 assessed as enzyme activity at 1 uM using GRSRSRSRSR as substrate preincubated for 20 mins followed by [gamma-33P]-ATP addition and measured after 120 mins by radiometric Hot-SpotSM Kinase assay relative to control.

Chain of Serine/threonine-protein kinase PAK 2 (Homo sapiens) (Q13177 whole entry): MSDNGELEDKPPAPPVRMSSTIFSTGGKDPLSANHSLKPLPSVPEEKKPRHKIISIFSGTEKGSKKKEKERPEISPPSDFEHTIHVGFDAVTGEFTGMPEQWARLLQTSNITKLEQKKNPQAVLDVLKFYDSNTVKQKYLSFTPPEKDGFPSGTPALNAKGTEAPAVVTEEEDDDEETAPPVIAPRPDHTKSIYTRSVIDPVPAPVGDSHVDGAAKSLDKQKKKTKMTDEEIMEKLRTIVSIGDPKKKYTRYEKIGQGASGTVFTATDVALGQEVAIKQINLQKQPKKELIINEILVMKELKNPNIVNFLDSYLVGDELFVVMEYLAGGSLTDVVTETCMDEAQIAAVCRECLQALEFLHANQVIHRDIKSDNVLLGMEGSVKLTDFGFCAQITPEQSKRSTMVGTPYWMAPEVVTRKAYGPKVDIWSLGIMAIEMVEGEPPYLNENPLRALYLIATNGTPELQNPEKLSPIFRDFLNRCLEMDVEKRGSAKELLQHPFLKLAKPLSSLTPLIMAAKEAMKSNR
Chain of Tyrosine-protein kinase Lyn (Homo sapiens) (P07948 2-512 limits assumed): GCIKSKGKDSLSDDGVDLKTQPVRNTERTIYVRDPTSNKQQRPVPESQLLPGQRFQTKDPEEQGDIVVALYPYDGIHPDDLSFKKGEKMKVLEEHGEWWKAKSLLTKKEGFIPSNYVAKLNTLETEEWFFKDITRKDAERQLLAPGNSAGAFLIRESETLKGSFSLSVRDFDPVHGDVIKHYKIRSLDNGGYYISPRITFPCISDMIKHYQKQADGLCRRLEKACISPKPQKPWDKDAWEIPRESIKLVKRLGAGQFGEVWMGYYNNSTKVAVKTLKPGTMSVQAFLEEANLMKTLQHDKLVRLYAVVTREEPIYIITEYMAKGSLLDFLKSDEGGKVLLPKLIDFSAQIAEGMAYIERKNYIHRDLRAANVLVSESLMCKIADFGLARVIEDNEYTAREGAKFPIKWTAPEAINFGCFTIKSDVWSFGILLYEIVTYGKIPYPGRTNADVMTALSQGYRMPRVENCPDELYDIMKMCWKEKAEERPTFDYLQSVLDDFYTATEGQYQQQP
Chain of Tyrosine-protein kinase ABL2 (Homo sapiens) (P42684 whole entry): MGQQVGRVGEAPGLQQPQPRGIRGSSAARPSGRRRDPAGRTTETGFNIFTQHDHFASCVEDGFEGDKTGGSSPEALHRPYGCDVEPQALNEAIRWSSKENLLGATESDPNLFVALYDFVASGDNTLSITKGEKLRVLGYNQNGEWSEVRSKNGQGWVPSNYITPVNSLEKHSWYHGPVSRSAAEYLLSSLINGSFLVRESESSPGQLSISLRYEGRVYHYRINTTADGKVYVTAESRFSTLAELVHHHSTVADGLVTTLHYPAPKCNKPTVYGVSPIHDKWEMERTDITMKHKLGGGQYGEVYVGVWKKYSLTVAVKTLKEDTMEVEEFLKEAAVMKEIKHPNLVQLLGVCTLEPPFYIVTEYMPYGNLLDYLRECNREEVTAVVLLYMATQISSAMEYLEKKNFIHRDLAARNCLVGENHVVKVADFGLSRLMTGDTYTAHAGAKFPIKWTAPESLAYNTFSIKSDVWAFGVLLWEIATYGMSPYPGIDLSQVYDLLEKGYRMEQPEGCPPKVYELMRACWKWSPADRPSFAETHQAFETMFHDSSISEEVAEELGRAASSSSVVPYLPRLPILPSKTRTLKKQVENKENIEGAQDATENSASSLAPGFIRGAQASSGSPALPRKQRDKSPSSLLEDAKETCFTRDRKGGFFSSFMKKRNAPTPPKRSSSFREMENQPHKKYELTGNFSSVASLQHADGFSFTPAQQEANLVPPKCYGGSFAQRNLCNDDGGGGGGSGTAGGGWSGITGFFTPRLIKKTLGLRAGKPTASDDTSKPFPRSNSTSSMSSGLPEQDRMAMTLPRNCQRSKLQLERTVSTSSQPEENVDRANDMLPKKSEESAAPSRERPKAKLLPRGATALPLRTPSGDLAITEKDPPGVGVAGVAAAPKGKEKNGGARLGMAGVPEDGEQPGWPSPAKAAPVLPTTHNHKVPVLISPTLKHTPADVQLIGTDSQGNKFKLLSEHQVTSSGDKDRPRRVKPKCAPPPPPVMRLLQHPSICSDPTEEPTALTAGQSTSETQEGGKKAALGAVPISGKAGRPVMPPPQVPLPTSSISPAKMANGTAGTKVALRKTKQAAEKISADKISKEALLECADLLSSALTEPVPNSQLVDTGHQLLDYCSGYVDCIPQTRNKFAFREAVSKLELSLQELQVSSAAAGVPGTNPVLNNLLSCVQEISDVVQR
Chain of SRSF protein kinase 1 (Homo sapiens) (Q96SB4 whole entry): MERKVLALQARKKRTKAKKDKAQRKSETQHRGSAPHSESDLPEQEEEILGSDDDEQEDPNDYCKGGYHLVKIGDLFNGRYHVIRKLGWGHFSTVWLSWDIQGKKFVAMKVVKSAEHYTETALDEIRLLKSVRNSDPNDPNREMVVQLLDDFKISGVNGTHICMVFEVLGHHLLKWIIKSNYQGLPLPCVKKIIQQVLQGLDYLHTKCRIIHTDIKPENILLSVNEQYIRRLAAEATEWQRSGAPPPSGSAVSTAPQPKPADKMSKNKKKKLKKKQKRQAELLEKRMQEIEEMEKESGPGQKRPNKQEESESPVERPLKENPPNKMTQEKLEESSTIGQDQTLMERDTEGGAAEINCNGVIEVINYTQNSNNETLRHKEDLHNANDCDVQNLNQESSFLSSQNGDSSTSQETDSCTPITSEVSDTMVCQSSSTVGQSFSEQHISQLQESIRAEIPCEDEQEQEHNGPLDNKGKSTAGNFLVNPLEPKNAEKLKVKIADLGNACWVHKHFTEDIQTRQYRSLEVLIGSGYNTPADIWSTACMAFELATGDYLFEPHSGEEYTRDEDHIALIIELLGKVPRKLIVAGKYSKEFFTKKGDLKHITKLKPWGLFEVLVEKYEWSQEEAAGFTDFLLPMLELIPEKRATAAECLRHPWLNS
Chain of RAC-alpha serine/threonine-protein kinase (Homo sapiens) (P31749 whole entry): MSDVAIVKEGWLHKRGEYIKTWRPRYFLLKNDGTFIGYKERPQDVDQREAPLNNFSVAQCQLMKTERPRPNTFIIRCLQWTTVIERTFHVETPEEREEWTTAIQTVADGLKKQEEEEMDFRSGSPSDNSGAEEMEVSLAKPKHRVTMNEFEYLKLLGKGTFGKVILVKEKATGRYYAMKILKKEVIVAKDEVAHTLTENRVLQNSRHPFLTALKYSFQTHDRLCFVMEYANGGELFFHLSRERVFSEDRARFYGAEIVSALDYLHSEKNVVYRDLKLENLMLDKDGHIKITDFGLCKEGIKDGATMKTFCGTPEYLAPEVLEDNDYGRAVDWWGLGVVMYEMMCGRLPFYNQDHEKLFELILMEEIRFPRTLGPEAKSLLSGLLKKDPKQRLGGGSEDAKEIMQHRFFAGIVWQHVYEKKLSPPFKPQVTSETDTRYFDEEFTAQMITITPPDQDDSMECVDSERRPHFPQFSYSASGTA
Chain of Cyclin-dependent kinase 5/CDK5 activator 1 (Homo sapiens) (Q00535 whole entry): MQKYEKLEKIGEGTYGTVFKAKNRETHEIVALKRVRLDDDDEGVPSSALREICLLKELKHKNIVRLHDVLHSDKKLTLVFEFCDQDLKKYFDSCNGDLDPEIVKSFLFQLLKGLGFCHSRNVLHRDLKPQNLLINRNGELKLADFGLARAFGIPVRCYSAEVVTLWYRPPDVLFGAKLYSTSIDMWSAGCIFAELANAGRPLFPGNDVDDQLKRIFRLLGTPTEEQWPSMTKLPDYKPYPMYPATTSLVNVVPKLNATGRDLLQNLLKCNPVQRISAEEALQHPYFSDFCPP
Chain of Cyclin-dependent kinase 5/CDK5 activator 1 (Homo sapiens) (Q15078 99-307 partner limits assumed): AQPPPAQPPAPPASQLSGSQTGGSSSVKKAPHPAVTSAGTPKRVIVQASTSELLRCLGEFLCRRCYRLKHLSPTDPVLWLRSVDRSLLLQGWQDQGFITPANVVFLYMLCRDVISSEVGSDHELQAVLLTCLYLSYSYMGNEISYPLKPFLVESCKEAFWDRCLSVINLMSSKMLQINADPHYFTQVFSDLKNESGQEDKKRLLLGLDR

For the molecule `C[C@H](Nc1ncnc2nc[nH]c12)c1cc2cccc(Cl)c2c(=O)n1-c1ccccc1`, the Activity is 91.7% in assay [1]; 99.6% in assay [2]; 89.4% in assay [3]; 92.7% in assay [4]; 89% in assay [5]; 100% in assay [6]. For the same molecule, the Activity is 108% in assay [7], 100% in assay [8] and 94% in [9].

`CC[C@H](Nc1ncnc2[nH]cnc12)c1nc2cccc(F)c2c(=O)n1-c1ccccc1`: the Activity in [1] is 89.1%; in assay [2] it was 99%; in assay [3], 90.8%; in assay [4], 99.8%; in [5], 87.8%; in assay [6], 95%. In addition, the Activity in [7] amounted to 108%; in assay [8], 103%; in [9], 92.7%.

Take `CC(C)Oc1ccc(-c2nn([C@@H](C)c3oc4ccc(F)cc4c(=O)c3-c3cccc(F)c3)c3ncnc(N)c23)cc1F` [UMBRALISIB]: the Activity in assay [1] came to 90.6%; in [2], 93.3%; in assay [3] it was 94.2%; in assay [4], 90.3%; in [5] it was 87%; in [6] it was 96.4%. In addition, the Activity in [7] turned out to be 105%; in assay [8] it was 96.8%; in [9], 90.6%.
